{"source": "paper PMC8426295", "about": "“Cytotoxic and radiosensitising effects of a novel thioredoxin reductase inhibitor in breast cancer” (Investigational New Drugs, 2021)", "key": {"MCF-7 cells": {"system": "MCF-7 cells", "assay": "Drug-radiation combination clonogenic survival (LQ model)", "type": "cell-based, human", "details": "1000 nM IQ9 for 4 h followed by irradiation", "description": "(§1) 5 × 10^5 cells were seeded in T25 cm^2 tissue culture flasks and incubated overnight. The sub-confluent cells were then treated either for 4-h or 48-h with IQ9 (0–5000 nM) or doxorubicin (10–20 nM). Following drug treatment, cells were collected, counted, and plated at low-density, in triplicate, and incubated, at 37 °C, 5% CO2, undisturbed, for 2 weeks for TNBC cells and 3 weeks for luminal cells, for colony formation. Colonies were fixed (50% methanol in 0.9% saline solution) and stained (0.5% crystal violet solution). Colonies consisting of more than 50 cells were confirmed by microscopy and scored as survivors. The plating efficiency (PE) was calculated as numbers of colonies formed/ numbers of cells plated. For single-agent treatment, drug or radiation, the surviving fraction was calculated as: number of colonies formed/ (numbers of cell plated x PE). For drug radiation combination experiments, cytotoxicity of drug treatment was accounted for by calculating surviving fraction as: number of colonies formed from each radiation dose/ (number of cells plated × PE × surviving fraction of drug-treated cell at 0 Gy).\n(§2) Sub-confluent cells were irradiated with a dose of 2, 4, 6, or 8 Gy (at a dose rate of 0.87 Gy/min) using an RS225 x-ray cabinet irradiation system (Xstrahl Limited, UK), fitted with a 0.5 mm Cu filter and run at 195 kV, 10 mA. Following irradiation, cells were immediately trypsinised and plated for clonogenic survival. Sham-irradiated cells were used as controls. Dose-response curves were plotted as a function of radiation dose on a log/ linear plot. Clonogenic survival calculation software (CS-CAL), developed by the Translational Radiation Oncology Group, German Cancer Research Centre was used to fit survival curves to the linear-quadratic (LQ) model (equation: […] ). The software can be accessed online at http://angiogenesis.dkfz.de/oncoexpress/software/cs-cal/. For drug-radiation combinations, cells were treated with 1000 nM IQ9 (2500 nM for T47D) for 4 h followed by irradiation (0–8 Gy). For 48 h drug treatment experiments, MDA-MB-231 and T47D cells were treated with clonogenic IC50 concentrations of IQ9 before irradiation. The sensitiser enhancement ratio (SER), calculated by dividing the X-ray dose causing 1% cell survival in the absence of drug treatment by the X-ray dose leading to 1% cell survival in the presence of drug treatment, was used to evaluate the degree of radiosensitisation.\n(§3) IC50 values were calculated from dose-response curves using an SPSS regression model between inhibition ratios and concentration gradients. The radiobiological parameters: alpha (α), beta (β), α/β ratio, and surviving fraction at 2 Gy (SF2) were extracted from the survival curves fitted using the LQ model. All results are presented as average ± standard deviation (SD) of three independent experiments, each performed in triplicate. Data were analysed using the student T-test and ANOVA one-way test. Statistical analysis was performed using SPSS 23.0 software. Values of P < 0.05 were considered statistically significant."}, "MDA-MB-231 cells": {"system": "MDA-MB-231 cells", "assay": "Drug-radiation combination clonogenic survival (LQ model)", "type": "cell-based, human", "details": "for SER (sensitiser enhancement ratio): at 1% cell survival", "description": "as §1, §2, §3"}, "MDA-MB-436 cells": {"system": "MDA-MB-436 cells", "assay": "Drug-radiation combination clonogenic survival (LQ model)", "type": "cell-based, human", "description": "as §1, §2, §3"}, "MDA-MB-468 cells": {"system": "MDA-MB-468 cells", "assay": "Drug-radiation combination clonogenic survival (LQ model)", "type": "cell-based, human", "description": "as §1, §2, §3"}, "T47D cells": {"system": "T47D cells", "assay": "Drug-radiation combination clonogenic survival (LQ model)", "type": "cell-based, human", "details": "for SER (sensitiser enhancement ratio): at 1% cell survival", "description": "as §1, §2, §3"}, "[1]": {"system": "triple-negative breast cancer cells", "assay": "Drug-radiation combination clonogenic survival, stated for TNBC cells together", "type": "cell-based, human", "details": "IQ9 for 4 h followed by irradiation, range over TNBC cell lines", "description": "as §1, with “For drug radiation combination experiments, cytotoxicity of drug treatment was accounted for by calculating surviving fraction as: number of colonies formed from each radiation dose/ (number of cells plated × PE × surviving fraction of drug-treated cell at 0 Gy).” left out\nSub-confluent cells were irradiated with a dose of 2, 4, 6, or 8 Gy (at a dose rate of 0.87 Gy/min) using an RS225 x-ray cabinet irradiation system (Xstrahl Limited, UK), fitted with a 0.5 mm Cu filter and run at 195 kV, 10 mA. […] The sensitiser enhancement ratio (SER), calculated by dividing the X-ray dose causing 1% cell survival in the absence of drug treatment by the X-ray dose leading to 1% cell survival in the presence of drug treatment, was used to evaluate the degree of radiosensitisation."}, "Trx": {"system": "Trx", "assay": "Western blotting of Trx expression", "type": "cell-based, human", "details": "48 h", "description": "(§4) Cells were treated with IQ9 (clonogenic IC50 concentrations) for 48 h, harvested, and resuspended in 1 mL of RIPA buffer (Sigma, UK) supplemented with 1X Halt phosphatase inhibitor cocktail, protease inhibitor cocktail, and EDTA. Samples were run on an SDS-polyacrylamide gel and transferred onto a 0.2 μm nitrocellulose membrane (GE Healthcare). The membrane was then blocked using 5% milk powder in 0.1% PBS/ Tween20, for 1 h at room temperature and then incubated with primary antibody overnight at 4 °C. Anti-β-actin antibody (Abcam) was used as a loading control. Primary antibodies were rabbit anti-human Trx (Abcam; 1:1000), mouse anti-human antibody (Abcam; 1:500), and rabbit anti-human Txnip (Abcam; 1:500). For Trx and Txnip, bands were detected using an Odyssey FC Imager (LI-COR). Images were obtained and fluorescence intensity quantified using Image Studio Software (version 4). The signals for Trx and Txnip were normalised against β-actin. For TrxR, bands were detected using an Amersham Enhanced Chemiluminescence system (GE Healthcare)."}, "TrxR": {"system": "TrxR", "assay": "Western blotting of TrxR expression", "type": "cell-based, human", "details": "clonogenic IC50 concentration, 48 h", "description": "as §4"}, "Txnip": {"system": "Txnip", "assay": "Western blotting of Txnip expression", "type": "cell-based, human", "details": "any of the breast cancer cell lines, clonogenic IC50 concentration, 48 h", "description": "as §4"}, "breast cancer cells": {"system": "breast cancer cells", "assay": "Potency against breast cancer cells (IC50 range, comparison of TrxR inhibitors)", "type": "cell-based", "details": "Homo sapiens; range over the cell lines and assays of this study"}, "[2]": {"details": "1000 nM IQ9 for 4 h followed by irradiation"}, "[3]": {"details": "IQ9 exposure 48 h before irradiation"}, "[4]": {"details": "clonogenic IC50 concentration of IQ9 for 48 h before irradiation"}, "[5]": {"details": "1000 nM IQ9 for 4 h followed by irradiation, at 1% cell survival"}, "[6]": {"details": "IQ9 for 4 h followed by irradiation, vs control"}, "[7]": {"details": "2500 nM IQ9 for 4 h followed by irradiation"}}, "note": "Marks after values point to notes of the source that are not given here."}
{"smiles": "COC1=CC(=O)c2c(c(COc3c(F)cc(F)cc3F)cn2C)C1=O", "note": "[IQ9]", "values": [{"measurement": "SF2 (surviving fraction at 2 Gy)", "setting": "MCF-7 cells", "value": "0.24 ± 0.10"}, {"measurement": "α", "setting": "MCF-7 cells", "value": "0.58 ± 0.18", "unit": "Gy^−1"}, {"measurement": "α/β Ratio", "setting": "MCF-7 cells", "value": "7.25 ± 3.19"}, {"measurement": "β", "setting": "MCF-7 cells", "value": "0.08 ± 0.02", "unit": "Gy^−2"}, {"measurement": "SER (sensitiser enhancement ratio)", "setting": "MCF-7 cells; at 1% cell survival", "value": 1.08}, {"measurement": "SF2 (surviving fraction at 2 Gy)", "setting": "MDA-MB-231 cells; [2]", "value": "0.21 ± 0.02"}, {"measurement": "α", "setting": "MDA-MB-231 cells; [2]", "value": "0.70 ± 0.17", "unit": "Gy^−1"}, {"measurement": "α/β Ratio", "setting": "MDA-MB-231 cells; [2]", "value": "11.67 ± 3.63"}, {"measurement": "β", "setting": "MDA-MB-231 cells; [2]", "value": "0.06 ± 0.01", "unit": "Gy^−2"}, {"measurement": "SER (sensitiser enhancement ratio)", "setting": "MDA-MB-231 cells; [2]", "value": 1.20}, {"measurement": "radiosensitivity (in words)", "setting": "MDA-MB-231 cells; [3]", "value": "no significant increase in radiosensitivity"}, {"measurement": "SF2 (surviving fraction at 2 Gy)", "setting": "MDA-MB-231 cells; [4]", "value": "0.22 ± 0.08"}, {"measurement": "α", "setting": "MDA-MB-231 cells; [4]", "value": "0.85 ± 0.04", "unit": "Gy^−1"}, {"measurement": "α/β Ratio", "setting": "MDA-MB-231 cells; [4]", "value": "25.60 ± 4.62"}, {"measurement": "β", "setting": "MDA-MB-231 cells; [4]", "value": "0.03 ± 0.01", "unit": "Gy^−2"}, {"measurement": "SER (sensitiser enhancement ratio)", "setting": "MDA-MB-231 cells; [4]", "value": 1.07}, {"measurement": "SF2 (surviving fraction at 2 Gy)", "setting": "MDA-MB-436 cells; [2]", "value": "0.07 ± 0.01"}, {"measurement": "α", "setting": "MDA-MB-436 cells; [2]", "value": "1.33 ± 0.06* Gy^−1"}, {"measurement": "α/β Ratio", "setting": "MDA-MB-436 cells; [2]", "value": "66.53 ± 2.89"}, {"measurement": "β", "setting": "MDA-MB-436 cells; [2]", "value": "0.02 ± 0.00", "unit": "Gy^−2"}, {"measurement": "SER (sensitiser enhancement ratio)", "setting": "MDA-MB-436 cells; [5]", "value": 1.43}, {"measurement": "factor of increase in α", "setting": "MDA-MB-436 cells; [6]", "value": 1.8}, {"measurement": "SF2 (surviving fraction at 2 Gy)", "setting": "MDA-MB-468 cells; [2]", "value": "0.19 ± 0.01"}, {"measurement": "α", "setting": "MDA-MB-468 cells; [2]", "value": "0.85 ± 0.08* Gy^−1"}, {"measurement": "α/β Ratio", "setting": "MDA-MB-468 cells; [2]", "value": "85.00 ± 8.18"}, {"measurement": "β", "setting": "MDA-MB-468 cells; [2]", "value": "0.01 ± 0.00", "unit": "Gy^−2"}, {"measurement": "SER (sensitiser enhancement ratio)", "setting": "MDA-MB-468 cells; [5]", "value": 1.30}, {"measurement": "factor of increase in α", "setting": "MDA-MB-468 cells; [6]", "value": 1.4}, {"measurement": "SF2 (surviving fraction at 2 Gy)", "setting": "T47D cells; [7]", "value": "0.45 ± 0.02"}, {"measurement": "α", "setting": "T47D cells; [7]", "value": "0.47 ± 0.04", "unit": "Gy^−1"}, {"measurement": "α/β Ratio", "setting": "T47D cells; [7]", "value": "15.66 ± 1.17"}, {"measurement": "β", "setting": "T47D cells; [7]", "value": "0.03 ± 0.00", "unit": "Gy^−2"}, {"measurement": "SER (sensitiser enhancement ratio)", "setting": "T47D cells; [7]", "value": 1.00}, {"measurement": "radiosensitivity (in words)", "setting": "T47D cells; [3]", "value": "no significant increase in radiosensitivity"}, {"measurement": "radiosensitisation (in words)", "setting": "T47D cells; IQ9 for 4 h followed by irradiation", "value": "no altered radiosensitisation"}, {"measurement": "SF2 (surviving fraction at 2 Gy)", "setting": "T47D cells; [4]", "value": "0.31 ± 0.04"}, {"measurement": "α", "setting": "T47D cells; [4]", "value": "0.40 ± 0.12", "unit": "Gy^−1"}, {"measurement": "α/β Ratio", "setting": "T47D cells; [4]", "value": "7.27 ± 5.53"}, {"measurement": "β", "setting": "T47D cells; [4]", "value": "0.05 ± 0.02", "unit": "Gy^−2"}, {"measurement": "SER (sensitiser enhancement ratio)", "setting": "T47D cells; [4]", "value": 1.00}, {"measurement": "SER values (sensitiser enhancement ratios)", "setting": "[1]", "value": "1.20–1.43"}, {"measurement": "expression of Trx", "setting": "Trx; MDA-MB-231, clonogenic IC50 concentration, P = 0.003", "value": "increased expression"}, {"measurement": "expression of Trx", "setting": "Trx; the other four cell lines (MDA-MB-468, MDA-MB-436, T47D, MCF-7), clonogenic IC50 concentration", "value": "no effect"}, {"measurement": "expression of TrxR", "setting": "TrxR; TNBC cells", "value": "little effect, if any"}, {"measurement": "expression of TrxR", "setting": "TrxR; luminal cells", "value": "Increased expression"}, {"measurement": "Txnip expression", "setting": "Txnip", "value": "not affected"}, {"measurement": "IC50", "setting": "breast cancer cells", "value": "200 to 2000", "unit": "nM"}]}
